This passage reports GI50 and solubility results from ChEMBL document CHEMBL1135385, “New highly active taxoids from 9beta-dihydrobaccatin-9,10-acetals. Part 2” (Bioorg Med Chem Lett, 2002).

≈ marks a conversion by molar mass, not a printed value. Where only a bound is given, the exact number is not on record here.

In series [1] the test system is PC-6. As to the kind of experiment: Concentration required to obtain half of the maximal inhibition for cell growth in human small cell lung cancer(PC-6) was determined by using MTT assay when the cells were exposed to compound for 72 hr. In kind it is functional. To be noted: PC-6, Lung. On the technique in general: Formazan colour is commonly taken as a measure of viable cells.

The subject of series [2] is PC-6. As to the kind of experiment: Concentration required to obtain half of the maximal inhibition for cell growth in vincristine-resistant cell line expressing P-glycoprotein (PC-6/VCR29-9) was determined by using MTT assay when the cells were exposed to compound for 72 hr. In kind it is functional. To be noted: Homo sapiens, PC-6, 72 h.
The test system of series [3] is PC-12. Put plainly: Concentration required to obtain half of the maximal inhibition for cell growth in human non-small cell lung cancer cell line(PC-12) was determined by using MTT assay when the cells were exposed to compound for 72 hr. To be noted: PC-12, Lung.
The nature of series [4]: Solubility (JP1 at pH 1.2). In kind it is physicochemical. To be noted: JP1, pH 1.2.
Series [5] in a line: Solubility (JP2 at pH 6.8). In kind it is physicochemical. To be noted: JP2, pH 6.8.

The term GI50 denotes the concentration giving 50% growth inhibition. Read a low GI50 as more potent growth inhibition. As for `CC(=O)O[C@@]12CO[C@@H]1C[C@@H](F)[C@@]1(C)[C@@H]3OC(C)(C)O[C@@H]3C3=C(C)[C@@H](OC(=O)[C@H](O)[C@@H](NC(=O)OC(C)(C)C)c4ccncc4)C[C@@](O)([C@@H](OC(=O)c4ccccc4)[C@H]21)C3(C)C`, the figures for the GI50 in series [1], in series [2] and in series [3] were 0.266 ng/mL (≈ 0.312 nM), 3.87 ng/mL (≈ 4.54 nM) and 0.13 ng/mL (≈ 0.152 nM), respectively.
For `CC(=O)O[C@@]12CO[C@@H]1CC[C@@]1(C)[C@@H]3OC(C)(C)O[C@@H]3C3=C(C)[C@@H](OC(=O)[C@H](O)[C@@H](NC(=O)OC(C)(C)C)c4ccncc4)C[C@@](O)([C@@H](OC(=O)c4ccccc4)[C@@H]12)C3(C)C`, the GI50 in series [1] stood at 0.386 ng/mL (≈ 0.462 nM); in series [2] it was 3.84 ng/mL (≈ 4.6 nM); in series [3], 0.038 ng/mL (≈ 0.0455 nM).
Broadly, the solubility is the dissolved amount per volume that the medium holds. Consider `CC(=O)O[C@@]12CO[C@@H]1C[C@H](O)[C@@]1(C)C(=O)[C@H](O)C3=C(C)[C@@H](OC(=O)[C@H](O)[C@@H](NC(=O)OC(C)(C)C)c4ccccc4)C[C@@](O)([C@@H](OC(=O)c4ccccc4)[C@H]21)C3(C)C.O.O.O` [DOCETAXEL], for which the solubility in series [4] and in series [5] was under 4 µg/mL each time. Moreover, the figures for the GI50 in series [1], in series [2] and in series [3] were 1.48 ng/mL, 135 ng/mL and 42.2 ng/mL, respectively.
For the compound `CC(=O)O[C@@]12CO[C@@H]1CC[C@@]1(C)[C@@H]3OC(C)(C)O[C@@H]3C3=C(C)[C@@H](OC(=O)[C@H](O)[C@@H](NC(=O)OC(C)(C)C)c4ccccc4)C[C@@](O)([C@@H](OC(=O)c4ccccc4)[C@@H]12)C3(C)C`, the GI50 in series [1] was found to be 0.332 ng/mL (≈ 0.398 nM); in series [2], 2.91 ng/mL (≈ 3.49 nM); in series [3], 0.151 ng/mL (≈ 0.181 nM).
With `CC(=O)O[C@@]12CO[C@@H]1C[C@H](O)[C@@]1(C)[C@@H]3OC(C)(C)O[C@@H]3C3=C(C)[C@@H](OC(=O)[C@H](O)[C@@H](NC(=O)OC(C)(C)C)c4ccncc4)C[C@@](O)([C@@H](OC(=O)c4ccccc4)[C@H]21)C3(C)C`, the solubility in series [4] is 333 µg/mL (≈ 391000 nM); in series [5], 57 µg/mL (≈ 67000 nM). Moreover, the results for the GI50 in series [1], in series [2] and in series [3] were 0.38 ng/mL (≈ 0.447 nM), 13.5 ng/mL (≈ 15.9 nM) and 0.665 ng/mL (≈ 0.781 nM), respectively.
In the case of `CC(=O)O[C@H]1C(=O)[C@@]2(C)[C@H]([C@H](OC(=O)c3ccccc3)[C@]3(O)C[C@H](OC(=O)[C@H](O)[C@@H](NC(=O)c4ccccc4)c4ccccc4)C(C)=C1C3(C)C)[C@]1(OC(C)=O)CO[C@@H]1C[C@@H]2O` [PACLITAXEL], the solubility in series [4] and in series [5] was under 4 µg/mL in each case.
For `CC(=O)O[C@@]12CO[C@@H]1CC[C@@]1(C)[C@@H]3OC(C)(C)O[C@@H]3C3=C(C)[C@@H](OC(=O)[C@H](O)[C@@H](NC(=O)OC(C)(C)C)c4ccccn4)C[C@@](O)([C@@H](OC(=O)c4ccccc4)[C@@H]12)C3(C)C`, the GI50 in series [1] turned out to be 0.145 ng/mL (≈ 0.174 nM); in series [2] it was 0.538 ng/mL (≈ 0.644 nM); in series [3], 0.116 ng/mL (≈ 0.139 nM).
The matching figures for `CO[C@H]1C[C@H]2OC[C@@]2(OC(C)=O)[C@H]2[C@H](OC(=O)c3ccccc3)[C@]3(O)C[C@H](OC(=O)[C@H](O)[C@@H](NC(=O)OC(C)(C)C)c4ccncc4)C(C)=C([C@H]4OC(C)(C)O[C@H]4[C@]12C)C3(C)C`: 0.229 ng/mL (≈ 0.265 nM), 38.1 ng/mL (≈ 44 nM) and 2.26 ng/mL (≈ 2.61 nM).
The matching figures for `CC(=O)O[C@@]12CO[C@@H]1C[C@@H]1C[C@@]13[C@@H]1OC(C)(C)O[C@@H]1C1=C(C)[C@@H](OC(=O)[C@H](O)[C@@H](NC(=O)OC(C)(C)C)c4ccncc4)C[C@@](O)([C@@H](OC(=O)c4ccccc4)[C@H]23)C1(C)C`: 7.03 ng/mL (≈ 8.44 nM), over 100 ng/mL and 33.7 ng/mL (≈ 40.5 nM).
